In experiment [1] the target is T1, Steroid hormone receptor ERR1 (Homo sapiens, UniProt P11474).
T1 sequence (P11474 whole entry): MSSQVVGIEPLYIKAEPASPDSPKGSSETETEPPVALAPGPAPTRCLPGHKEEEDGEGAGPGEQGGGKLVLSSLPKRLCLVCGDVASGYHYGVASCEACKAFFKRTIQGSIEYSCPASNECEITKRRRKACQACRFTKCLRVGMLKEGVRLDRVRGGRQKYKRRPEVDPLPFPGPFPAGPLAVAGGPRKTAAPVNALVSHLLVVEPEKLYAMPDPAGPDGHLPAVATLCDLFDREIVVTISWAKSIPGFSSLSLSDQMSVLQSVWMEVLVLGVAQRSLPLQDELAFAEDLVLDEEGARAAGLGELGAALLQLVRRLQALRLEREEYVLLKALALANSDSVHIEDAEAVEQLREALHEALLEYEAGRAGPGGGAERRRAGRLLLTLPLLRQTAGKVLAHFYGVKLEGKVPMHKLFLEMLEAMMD
Briefly: Binding affinity to wild type ERRalpha ligand binding domain by isothermal titration calorimetry. A general note: ITC needs no label: the signal is the heat of the interaction.

Experiment [2] is described as follows: Binding affinity to ERRalpha C325S mutant ligand binding domain expressed in sf9 cells by isothermal titration calorimetry.
For experiment [3], the target named is T1, Steroid hormone receptor ERR1. Kind of experiment: Binding affinity to ERRalpha ligand binding domain by FRET assay.

The Kd is the concentration at which binding is half-saturated. Usually IC50 stands for the point on the concentration scale where inhibition reaches its midpoint. Low readings indicate higher potency, high ones lower potency. In the case of `c1ccc(-n2cc(CNCC3CCCCC3)c3ccccc32)cc1`, the results for the Kd in experiment [1] and in experiment [2] were 770 nM and 930 nM, respectively. In experiment [3], this compound came in with an IC50 of 700 nM.
